Test system: C666-1 cells
Assay: C666-1 cell viability single concentration (50 μM) inhibition rate (Resazurin)
Assay type: cell-based
Settings: Homo sapiens, C6661, 72 h, 50 μM compound, 72 hours, C666-1 cells; read-out: C666-1 cell viability single concentration (50 μM) inhibition rate, Ratio* (Inh %)
Description: In order to assess the effect of the EBNA1 inhibitor at the cellular level, the cell proliferation inhibition rate was tested, and the inhibition rate of inhibitor at a specific concentration on the proliferation of Epstein-Barr virus positive cell line C666-1 was detected.
In the test, 100 μL C666-1 cells were inoculated in a transparent 96-well plate, and each well contained 5×10^3 cells. After the cells were cultured in an incubator with 5% carbon dioxide at 37° C. for 24 hours, 10 μL compound at a concentration of 500 μmol/L was added into the cells, so that the final concentration of the compound was 50 μmol/L. Two replicate wells were set for each compound, the wells treated with DMSO were set as control wells (Ctrl), and the wells with cell culture medium only were set as blank wells (blank), and they were treated in the incubator with carbon dioxide at 37° C. for 72 hours. The cell viability was assessed using a redox indicator Resazurin. Specifically, 10 μL Resazurin at a concentration of 600 umol/L was added into each well, and incubated at 37° C. for 3 hours, and a Tecan microplate reader was used to detect the fluorescence signal at an excitation wavelength of 560 nm and an emission wavelength of 590 nm. The formula inh %=1−(F−Fblank)/(FCtrl−Fblank)×100% (where, F is the fluorescence intensity of the compound-added wells, FCtrl and Fblank are the readings of the control wells and blank wells, respectively) was used to calculate the inhibition rate of the compound on the proliferation of C666-1 cells, so as to assess the activity of the compound on Epstein-Barr virus positive cells.

Question: `COC(=O)c1cccc(N2CC(Oc3ccc(C(=O)C(C)C)cc3)C2)c1-n1cccc1` [Example 216, Methyl 3-(3-(4-isobutyrylphenoxy)azetidin-1-yl)-2-(1H-pyrrol-1-yl)benzoate] was tested. Which inhibition at 50 µM did it give?
Answer: The inhibition at 50 µM was < 10%.

Question: How did the inhibition at 50 µM turn out when `COC(=O)c1cccc(N2CC(Oc3ccc(CO)cc3)C2)c1-c1cccc(C(F)(F)F)c1` [Compound 59, Methyl 3′-(trifluoromethyl)-6-(3-(4-(hydroxymethyl)phenoxy)azetidin-1-yl)-[1,1′-biphenyl]-2-formate] was run?
Answer: Its inhibition at 50 µM is 10 to 30%.

Question: For `COC(=O)c1cccc(N2CC(Oc3ccc(COc4ccccc4)cc3)C2)c1-n1cccc1` [Example 114, Methyl 3-(3-(4-(phenoxymethyl)phenoxy)azetidin-1-yl)-2-(1H-pyrrol-1-yl)benzoate], which inhibition at 50 µM is on record?
Answer: The inhibition at 50 µM was 10 to 30%.

Question: `Nc1c(C(=O)O)cccc1N1CC(Oc2cccc(C(=O)O)c2)C1` [Compound 72, 3-(3-(3-carboxylphenoxy)azetidin-1-yl)-2-aminobenzoic acid] was tested. Which inhibition at 50 µM did it give?
Answer: The inhibition at 50 µM was < 10%.

Question: With `COC(=O)c1cccc(N2CC(Oc3ccc(Oc4ccccc4)c(Cl)c3)C2)c1-n1cccc1` [Example 198, Methyl 3-(3-(3-chloro-4-phenoxyphenoxy)azetidin-1-yl)-2-(1H-pyrrol-1-yl)benzoate] as the molecule, how does the inhibition at 50 µM read?
Answer: The inhibition at 50 µM was < 10%.

Question: `COc1ccc(C(O)C23CC(c4cccc(C(=O)O)c4)(C2)C3)cc1` (stereo not shown) [Example 273, 3-(3-(hydroxyl(4-methoxyphenyl)methyl)bicyclo[1. 1.1]pentan-1-yl)benzoic acid] was tested. Which inhibition at 50 µM did it give?
Answer: The inhibition at 50 µM was < 10%.

Question: For `COC(=O)c1cccc(N2CC(Oc3ccc(COC4COC4)cc3)C2)c1-n1cccc1` [Example 377, Methyl 3-(3-(4-((oxetanyl-3-oxy)methyl)phenoxy)azetidin-1-yl)-2-(1H-pyrrol-1-yl)benzoate], which inhibition at 50 µM is on record?
Answer: The inhibition at 50 µM was > 50%.

Question: How did the inhibition at 50 µM turn out when `O=C(O)c1cccc(N2CC(Oc3ccc(O)cc3)C2)c1-n1cccc1` [Example 188, 3-(3-(4-hydroxylphenoxy)azetidin-1-yl)-2-(1H-pyrrol-1-yl)benzoic acid] was run?
Answer: Its inhibition at 50 µM is < 10%.

Question: How did the inhibition at 50 µM turn out when `COC(=O)c1cccc(N2CC(Oc3ccc(COc4cccnc4)cc3)C2)c1-n1cccc1` [Example 243, Methyl 3-(3-(4-((pyridin-3-yl-oxy)methyl)phenoxy)azetidin-1-yl)-2-(1H-pyrrol-1-yl)benzoate] was run?
Answer: The inhibition at 50 µM was > 50%.

Question: How did the inhibition at 50 µM turn out when `O=C(O)c1cccc(N2CC(Oc3ccc(CO)cc3)C2)c1-c1ccc(-c2ccccc2)cc1` [Compound 64, 6-(3-(4-(hydroxymethyl)phenoxy)azetidin-1-yl)-[1,1′:4′,1″-terphenyl]-2-formic acid] was run?
Answer: Its inhibition at 50 µM is > 50%.

Question: `COC(=O)c1cccc(N2CC(Oc3ccc(Oc4cccc(OC)c4)cc3)C2)c1-n1cccc1` [Example 196, Methyl 3-(3-(4-(3-methoxyphenoxy)phenoxy)azetidin-1-yl)-2-(1H-pyrrol-1-yl)benzoate] was tested. Which inhibition at 50 µM did it give?
Answer: Its inhibition at 50 µM is < 10%.

Question: With `COC(=O)c1cccc(N2CC3(CN(c4ccccc4N)C3)C2)c1-n1cccc1` [Compound 19, Methyl 3-(6-(2-aminophenyl)-2,6-diazaspiro[3.3]heptan-2-yl)-2-(1H-pyrrol-1-yl)benzoate] as the molecule, how does the inhibition at 50 µM read?
Answer: Its inhibition at 50 µM is > 50%.

Question: How did the inhibition at 50 µM turn out when `O=C(Nc1ccc(OC2CN(c3cccc(C(=O)O)c3-n3cccc3)C2)cc1)Nc1ccc(C(F)(F)F)cc1` [Example 230, 3-(3-(4-(3-(4-(trifluoromethyl)phenyl)ureido)phenoxy)azetidin-1-yl)-2-(1H-pyrrol-1-yl)benzoic acid] was run?
Answer: Its inhibition at 50 µM is 10 to 30%.

Question: For `O=C(O)c1cccc(N2CC(OCc3cnccn3)C2)c1-n1cccc1` [Example 143], which inhibition at 50 µM is on record?
Answer: Its inhibition at 50 µM is < 10%.

Question: With `COC(=O)c1cccc(N2CC(Oc3ccc(C(F)(F)F)cc3)C2)c1-n1cccc1` [Compound 81, Methyl 2-(1H-pyrrol-1-yl)-3-(3-(4-(trifluoromethyl)phenoxy)azetidin-1-yl)benzoate] as the molecule, how does the inhibition at 50 µM read?
Answer: Its inhibition at 50 µM is 10 to 30%.

Question: For `COC(=O)c1cccc(N2CC(Oc3ccc(OCCN)cc3)C2)c1-n1cccc1` [Example 310, Methyl 3-(3-(4-(2-aminoethoxy)phenoxy)azetidin-1-yl)-2-(1H-pyrrol-1-yl)benzoate], which inhibition at 50 µM is on record?
Answer: The inhibition at 50 µM was < 10%.

Question: How did the inhibition at 50 µM turn out when `O=C(O)c1cccc(N2CC(Oc3ccc(Oc4ccc(F)cc4)cc3)C2)c1-n1cccc1` [Example 203, 3-(3-(4-(4-fluorophenoxy)phenoxy)azetidin-1-yl)-2-(1H-pyrrol-1-yl)benzoic acid] was run?
Answer: The inhibition at 50 µM was 10 to 30%.

Question: For `Nc1ccccc1OC1CN(c2cccc(C(=O)O)c2-n2cccc2)C1` [Example 256, 3-(3-(2-aminophenoxy)azetidin-1-yl)-2-(1H-pyrrol-1-yl)benzoic acid], which inhibition at 50 µM is on record?
Answer: Its inhibition at 50 µM is > 50%.

Question: With `COC(=O)c1cccc(N2CC(Oc3cc(F)nc(F)c3)C2)c1-n1cccc1` [Example 284, Methyl 3-(3-((2,6-difluoropyridin-4-yl)oxy)azetidin-1-yl)-2-(1H-pyrrol-1-yl)benzoate] as the molecule, how does the inhibition at 50 µM read?
Answer: Its inhibition at 50 µM is < 10%.

Question: Which inhibition at 50 µM does the source give for `COc1cc(OC2CN(c3cccc(C(=O)O)c3-n3cccc3)C2)ccc1OCCNC(C)=O` [Example 221, 3-(3-(4-(2-acetylaminoethoxy)-3-methoxyphenoxy)azetidin-1-yl)-2-(1H-pyrrol-1-yl)benzoic acid] here?
Answer: Its inhibition at 50 µM is < 10%.

Question: `O=C(O)c1cccc(N2CC(Oc3ccc(CO)cc3)C2)c1-c1ccccc1` [Compound 42] was tested. Which inhibition at 50 µM did it give?
Answer: The inhibition at 50 µM was < 10%.

Question: For `COC(=O)c1cccc(N2CC(Oc3ccc(CNCc4ccccc4)cc3)C2)c1-n1cccc1` [Example 364], which inhibition at 50 µM is on record?
Answer: Its inhibition at 50 µM is < 10%.

Question: For `O=C(O)c1cccc(OC2CN(c3cccc(C(=O)O)c3-n3cccc3)C2)c1` [Compound 73, 3-(3-(3-carboxylphenoxy)azetidin-1-yl)-2-(1H-pyrrol-1-yl)benzoic acid], which inhibition at 50 µM is on record?
Answer: The inhibition at 50 µM was < 10%.

Question: For `O=C(NC1CN(c2cccc(C(=O)O)c2-n2cccc2)C1)c1ccccc1` [Example 179, 3-(3-benzamidoazetidin-1-yl)-2-(1H-pyrrol-1-yl)benzoic acid], which inhibition at 50 µM is on record?
Answer: The inhibition at 50 µM was < 10%.

Question: How did the inhibition at 50 µM turn out when `CCOCc1ccc(OC2CN(c3cccc(C(=O)O)c3-n3cccc3)C2)cc1` [Example 233, 3-(3-(4-(ethoxymethyl)phenoxy)azetidin-1-yl)-2-(1H-pyrrol-1-yl)benzoic acid] was run?
Answer: Its inhibition at 50 µM is < 10%.

Question: With `O=C(Nc1ccc(OC2CN(c3cccc(C(=O)O)c3-n3cccc3)C2)cc1)NC1CCCCC1` [Example 131, 3-(3-(4-(3-cyclohexylureido)phenoxy)azetidin-1-yl)-2-(1H-pyrrol-1-yl)benzoic acid] as the molecule, how does the inhibition at 50 µM read?
Answer: Its inhibition at 50 µM is < 10%.

Question: For `O=C(O)c1cccc(N2CC(OC(=S)Nc3ccc(Cl)cc3Cl)C2)c1-n1cccc1` [Example 163, 3-(3-(((2,4-dichlorophenyl)thiocarbamoyl)oxy)azetidin-1-yl)-2-(1H-pyrrol-1-yl)benzoic acid], which inhibition at 50 µM is on record?
Answer: Its inhibition at 50 µM is < 10%.

Same assay, conditions: Homo sapiens, C6661, 72 h, read-out: C666-1 cell viability single concentration (50 μM) inhibition rate, Ratio* (Inh %)

Question: Which inhibition at 50 µM does the source give for `Cn1ccc2cc(CN(C#Cc3cccc(C(=O)O)c3-n3cccc3)S(=O)(=O)c3ccc4occc4c3)ccc21` [Example 339, Lithium 3-((N-((1-methyl-1H-indol-5-yl)methyl)benzofuran-5-sulfonamido)ethynyl)-2-(1H-pyrrol-1-yl)benzoate] here?
Answer: The inhibition at 50 µM was < 10%.

Question: For `O=C(O)c1cccc(C#CN(Cc2ccc(F)cc2)S(=O)(=O)c2cccs2)c1-n1cccc1` [Example 327, Lithium 3-((N-(4-fluorobenzyl)thiophen-2-sulfonamido)ethynyl)-2-(1H-pyrrol-1-yl)benzoate], which inhibition at 50 µM is on record?
Answer: The inhibition at 50 µM was > 50%.

Question: With `Cc1ccc(S(=O)(=O)N(C#Cc2cccc(C(=O)O)c2-n2cccc2)Cc2ccncc2)cc1` [Example 390] as the molecule, how does the inhibition at 50 µM read?
Answer: Its inhibition at 50 µM is 10 to 30%.

Question: For `CS(=O)(=O)N(C#Cc1cccc(C(=O)O)c1-n1cccc1)Cc1ccccc1` [Example 382, Lithium 3-((N-benzylmethylsulfonamido)ethynyl)-2-(1H-pyrrol-1-yl)benzoate], which inhibition at 50 µM is on record?
Answer: The inhibition at 50 µM was < 10%.
